Measured values as given in publication PMC2798597 (Biochemical pharmacology, 2009).

What was measured:
[1] = FG020326 plasma levels in mice; type: in vivo; details: NIH mice, 100 mg/kg p.o.; for plasma concentration at 8 h: 8 h after administration
KB-CV60 (ABCC1) = experiment: MTT cytotoxicity / MDR reversal; type: cell-based, human; details: KB-CV60 cells; +5 µM FG020326
KB = experiment: MTT cytotoxicity / MDR reversal; type: cell-based, human; details: KB cells
[2] = test system: the entire cell lines tested; experiment: MTT cytotoxicity of FG020326 alone; type: cell-based
NIH3T3/MRP-4-2 (ABCC4) = experiment: MTT cytotoxicity / MDR reversal; type: cell-based, murine; details: NIH3T3/MRP-4-2 cells; +5 µM FG020326
SW1573/2R120 (LRP) = experiment: MTT cytotoxicity / MDR reversal; type: cell-based, human; details: SW1573/2R120 cells; +5 µM FG020326
KB-3-1 = experiment: MTT cytotoxicity / MDR reversal; type: cell-based, human; details: KB-3-1 cells; +5 µM FG020326
KB cells [3] = experiment: ABCB1 function analysis, Rho 123 retention; type: cell-based, human; details: drug sensitive KB cells
MCF-7 = experiment: MTT cytotoxicity / MDR reversal; type: cell-based, human; details: MCF-7 cells
KBv200 cells [4] = experiment: Intracellular Dox accumulation; type: cell-based, human
S1-M1-80 (ABCG2) = experiment: MTT cytotoxicity / MDR reversal; type: cell-based; details: S1-M1-80 cells; +5 µM FG020326
SW1573 = experiment: MTT cytotoxicity / MDR reversal; type: cell-based, human; details: SW1573 cells; +5 µM FG020326
KB cells [5] = experiment: Intracellular Dox accumulation; type: cell-based, human; details: drug sensitive KB cells; 0.625-10 µM
NIH3T3 = experiment: MTT cytotoxicity / MDR reversal; type: cell-based, murine; details: NIH3T3 cells; +5 µM FG020326
ABCB1 = ABCB1 (Homo sapiens, UniProt P08183); type: biochemical; details: read-out: IC50, inhibition of ABCB1 ATPase activity; Vi-sensitive ATPase; membrane vesicles of High Five insect cells
Sequence of ABCB1 (P08183 whole entry): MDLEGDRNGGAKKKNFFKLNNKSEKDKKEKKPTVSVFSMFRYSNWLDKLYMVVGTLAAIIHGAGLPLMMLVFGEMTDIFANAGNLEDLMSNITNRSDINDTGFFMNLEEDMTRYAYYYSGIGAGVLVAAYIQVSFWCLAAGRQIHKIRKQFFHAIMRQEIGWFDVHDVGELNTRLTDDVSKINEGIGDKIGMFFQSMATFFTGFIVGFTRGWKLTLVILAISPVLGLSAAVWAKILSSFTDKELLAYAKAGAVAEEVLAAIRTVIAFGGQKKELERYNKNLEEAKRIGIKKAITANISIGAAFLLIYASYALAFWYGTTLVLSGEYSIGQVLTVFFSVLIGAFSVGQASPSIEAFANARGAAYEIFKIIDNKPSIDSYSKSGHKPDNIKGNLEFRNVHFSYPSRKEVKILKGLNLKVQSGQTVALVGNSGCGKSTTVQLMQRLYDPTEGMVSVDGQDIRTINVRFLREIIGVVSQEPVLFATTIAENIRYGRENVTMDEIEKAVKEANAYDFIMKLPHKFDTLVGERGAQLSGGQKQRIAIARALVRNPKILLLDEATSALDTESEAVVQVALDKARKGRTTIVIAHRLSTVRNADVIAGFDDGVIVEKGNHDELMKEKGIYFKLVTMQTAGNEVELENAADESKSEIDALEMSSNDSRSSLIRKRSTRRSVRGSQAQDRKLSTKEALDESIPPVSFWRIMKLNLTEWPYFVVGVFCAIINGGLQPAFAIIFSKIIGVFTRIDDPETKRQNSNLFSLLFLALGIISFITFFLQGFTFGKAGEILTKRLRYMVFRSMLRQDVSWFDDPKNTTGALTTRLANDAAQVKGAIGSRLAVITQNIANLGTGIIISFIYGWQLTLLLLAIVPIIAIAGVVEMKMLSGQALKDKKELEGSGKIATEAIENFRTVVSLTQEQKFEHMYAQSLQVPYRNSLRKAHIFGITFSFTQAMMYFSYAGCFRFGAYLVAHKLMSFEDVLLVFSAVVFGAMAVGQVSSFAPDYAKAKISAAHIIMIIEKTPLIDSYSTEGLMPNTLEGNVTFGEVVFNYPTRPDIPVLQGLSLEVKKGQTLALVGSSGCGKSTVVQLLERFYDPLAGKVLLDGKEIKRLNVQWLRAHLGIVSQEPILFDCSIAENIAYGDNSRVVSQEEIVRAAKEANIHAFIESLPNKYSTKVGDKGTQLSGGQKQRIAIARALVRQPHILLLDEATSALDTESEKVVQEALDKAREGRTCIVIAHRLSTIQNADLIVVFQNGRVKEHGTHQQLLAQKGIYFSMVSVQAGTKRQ

KBv200 cell xenografts = experiment: MDR human carcinoma xenograft model; type: in vivo, athymic nude mice
KBv200 cells [6] = experiment: Dox efflux; type: cell-based, human; details: 5 µM FG020326
[7] = test system: ABCB1 expression in KBv200 cells; details: 48 h, Western blot
KB cells [8] = experiment: Dox efflux; type: cell-based, human; details: 5 µM FG020326
KBv200 (ABCB1) = experiment: MTT cytotoxicity / MDR reversal; type: cell-based, human; details: KBv200 cells
S1 = experiment: MTT cytotoxicity / MDR reversal; type: cell-based; details: S1 cells; +5 µM FG020326
MCF-7/adr (ABCB1) = experiment: MTT cytotoxicity / MDR reversal; type: cell-based, human; details: MCF-7/adr cells
[9] = VCR experiment, VCR 0.2 mg/kg i.p. q2d×6, FG020326 100 mg/kg p.o. q2d×6
[10] = paclitaxel experiment, paclitaxel 18 mg/kg i.p. q5d×3, FG020326 100 mg/kg p.o.

**Q.** With `COC(=O)/C=C/c1ccc(-c2nc(-c3ccc(N(C)C(C)C)cc3)c(-c3ccc(N(C)C(C)C)cc3)[nH]2)cc1` [FG020326, 2-[(4-Methyl-trans-acrylate)phenyl]-4,5-bis-(4-N, N-methyl-isopropyl-aminophenyl)-1(H)-imidazole] as the molecule, how does the peak plasma concentration ([1]; 100 mg/kg) read?
**A.** about 5.3 µM

**Q.** And the “plasma concentration at 8 h” value ([1]; 100 mg/kg)?
**A.** not less than 1.24 µM

**Q.** And the “plasma concentration at 8 h” value ([1]; listed as FG020236, 100 mg/kg)?
**A.** > 1240 nM

**Q.** And the “plasma concentration at 12 h” value ([1]; 12 h after administration)?
**A.** 920 nM

**Q.** And the peak plasma concentration ([1]; listed as FG020236, 100 mg/kg)?
**A.** 5.3 µM

**Q.** What about the “fold-reversal (vincristine)” value (KB-CV60 (ABCC1)) of the same molecule?
**A.** (0.9) fold

**Q.** And the “fold-reversal (doxorubicin)” value (KB; +1.25 µM FG020326)?
**A.** (1.0) fold

**Q.** What about the “fold-reversal (paclitaxel)” value (KB; +1.25 µM FG020326) of the same molecule?
**A.** (1.0) fold

**Q.** And the “fold-reversal (vincristine)” value (KB; +1.25 µM FG020326)?
**A.** (1.0) fold

**Q.** What about the “fold-reversal (doxorubicin)” value (KB; +2.5 µM FG020326) of the same molecule?
**A.** (1.0) fold

**Q.** And the “fold-reversal (paclitaxel)” value (KB; +2.5 µM FG020326)?
**A.** (1.0) fold

**Q.** And the “fold-reversal (vincristine)” value (KB; +2.5 µM FG020326)?
**A.** (1.0) fold

**Q.** What about the “fold-reversal (5-FU)” value (KB; +5 µM FG020326) of the same molecule?
**A.** (1.0) fold

**Q.** And the “fold-reversal (doxorubicin)” value (KB; +5 µM FG020326)?
**A.** (0.9) fold

**Q.** And the “fold-reversal (paclitaxel)” value (KB; +5 µM FG020326)?
**A.** (1.1) fold

**Q.** What about the “fold-reversal (vincristine)” value (KB; +5 µM FG020326) of the same molecule?
**A.** (1.0) fold

**Q.** What about the Cell survival ([2]; all cell lines, concentrations used to reverse MDR, data not shown) of the same molecule?
**A.** > 90%

**Q.** And the IC50 ([2]; read-out: IC50 (cytotoxicity of FG020326 alone), MTT, entire cell lines tested)?
**A.** > 50000 nM

**Q.** And the “fold-reversal (vincristine)” value (NIH3T3/MRP-4-2 (ABCC4))?
**A.** (0.9) fold

**Q.** And the “fold-reversal (doxorubicin)” value (SW1573/2R120 (LRP))?
**A.** (1.0) fold

**Q.** And the “fold-reversal (vincristine)” value (KB-3-1)?
**A.** (0.9) fold

**Q.** And the “effect on Rho 123 accumulation” value (KB cells [3])?
**A.** not significantly altered

**Q.** And the “fold-reversal (doxorubicin)” value (MCF-7; +1.25 µM FG020326)?
**A.** (1.0) fold

**Q.** What about the “fold-reversal (paclitaxel)” value (MCF-7; +1.25 µM FG020326) of the same molecule?
**A.** (1.1) fold

**Q.** What about the “fold-reversal (vincristine)” value (MCF-7; +1.25 µM FG020326) of the same molecule?
**A.** (0.9) fold

**Q.** What about the “fold-reversal (doxorubicin)” value (MCF-7; +2.5 µM FG020326) of the same molecule?
**A.** (1.0) fold

**Q.** What about the “fold-reversal (paclitaxel)” value (MCF-7; +2.5 µM FG020326) of the same molecule?
**A.** (1.0) fold

**Q.** And the “fold-reversal (vincristine)” value (MCF-7; +2.5 µM FG020326)?
**A.** (1.0) fold

**Q.** What about the “fold-reversal (cisplatin)” value (MCF-7; +5 µM FG020326) of the same molecule?
**A.** (0.9) fold

**Q.** What about the “fold-reversal (doxorubicin)” value (MCF-7; +5 µM FG020326) of the same molecule?
**A.** (0.9) fold

**Q.** And the “fold-reversal (paclitaxel)” value (MCF-7; +5 µM FG020326)?
**A.** (1.0) fold

**Q.** And the “fold-reversal (vincristine)” value (MCF-7; +5 µM FG020326)?
**A.** (0.9) fold

**Q.** And the “enhancement of Dox accumulation” value (KBv200 cells [4]; 0.625 µM FG020326, 10 µM Dox)?
**A.** 1.4 fold

**Q.** And the “enhancement of Dox accumulation” value (KBv200 cells [4]; 1.25 µM FG020326, 10 µM Dox)?
**A.** 2.1 fold

**Q.** What about the “enhancement of Dox accumulation” value (KBv200 cells [4]; 2.5 µM FG020326, 10 µM Dox) of the same molecule?
**A.** 2.6 fold

**Q.** And the “enhancement of Dox accumulation” value (KBv200 cells [4]; 5 µM FG020326, 10 µM Dox)?
**A.** 3.0 fold

**Q.** And the “enhancement of Dox accumulation” value (KBv200 cells [4]; 10 µM FG020326, 10 µM Dox)?
**A.** 3.7 fold

**Q.** And the “fold-reversal (topotecan)” value (S1-M1-80 (ABCG2))?
**A.** (1.0) fold

**Q.** And the “fold-reversal (doxorubicin)” value (SW1573)?
**A.** (1.2) fold

**Q.** What about the “effect on intracellular accumulation of Dox” value (KB cells [5]) of the same molecule?
**A.** did not significantly alter the intracellular accumulation of Dox

**Q.** What about the “fold-reversal (vincristine)” value (NIH3T3) of the same molecule?
**A.** (0.9) fold

**Q.** What about the IC50 (ABCB1) of the same molecule?
**A.** 2500 nM

**Q.** What about the “Growth Inhibition” value (KBv200 cell xenografts; [9]) of the same molecule?
**A.** 9.4%

**Q.** And the Weight of tumor (KBv200 cell xenografts; [9])?
**A.** 2.43 ± 0.70 g

**Q.** What about the “Growth Inhibition” value (KBv200 cell xenografts; [10]) of the same molecule?
**A.** 7.2%

**Q.** And the Weight of tumor (KBv200 cell xenografts; [10])?
**A.** 2.08 ± 1.00 g

**Q.** What about the “effect on efflux of Dox” value (KBv200 cells [6]) of the same molecule?
**A.** significantly inhibited the efflux of Dox

**Q.** What about the “effect on ABCB1 protein expression level” value [7] of the same molecule?
**A.** no marked difference

**Q.** What about the “effect on efflux of Dox” value (KB cells [8]) of the same molecule?
**A.** but not the KB cells

**Q.** And the “fold-reversal (doxorubicin)” value (KBv200 (ABCB1); +1.25 µM FG020326)?
**A.** (4.2) fold

**Q.** What about the “fold-reversal (paclitaxel)” value (KBv200 (ABCB1); +1.25 µM FG020326) of the same molecule?
**A.** (5.0) fold

**Q.** What about the “fold-reversal (vincristine)” value (KBv200 (ABCB1); +1.25 µM FG020326) of the same molecule?
**A.** (16.7) fold

**Q.** What about the “fold-reversal (doxorubicin)” value (KBv200 (ABCB1); +2.5 µM FG020326) of the same molecule?
**A.** (8.0) fold

**Q.** What about the “fold-reversal (paclitaxel)” value (KBv200 (ABCB1); +2.5 µM FG020326) of the same molecule?
**A.** (10.3) fold

**Q.** What about the “fold-reversal (vincristine)” value (KBv200 (ABCB1); +2.5 µM FG020326) of the same molecule?
**A.** (34.7) fold

**Q.** What about the “fold-reversal (doxorubicin)” value (KBv200 (ABCB1); +5 µM FG020326) of the same molecule?
**A.** (12.2) fold

**Q.** What about the “fold-reversal (paclitaxel)” value (KBv200 (ABCB1); +5 µM FG020326) of the same molecule?
**A.** (30.4) fold

**Q.** What about the “fold-reversal (vincristine)” value (KBv200 (ABCB1); +5 µM FG020326) of the same molecule?
**A.** (57.3) fold

**Q.** And the “fold-reversal (topotecan)” value (S1)?
**A.** (1.1) fold

**Q.** What about the “fold-reversal (doxorubicin)” value (MCF-7/adr (ABCB1); +1.25 µM FG020326) of the same molecule?
**A.** (6.4) fold

**Q.** And the “fold-reversal (paclitaxel)” value (MCF-7/adr (ABCB1); +1.25 µM FG020326)?
**A.** (3.5) fold

**Q.** What about the “fold-reversal (vincristine)” value (MCF-7/adr (ABCB1); +1.25 µM FG020326) of the same molecule?
**A.** (2.3) fold

**Q.** What about the “fold-reversal (doxorubicin)” value (MCF-7/adr (ABCB1); +2.5 µM FG020326) of the same molecule?
**A.** (9.6) fold

**Q.** What about the “fold-reversal (paclitaxel)” value (MCF-7/adr (ABCB1); +2.5 µM FG020326) of the same molecule?
**A.** (8.8) fold

**Q.** And the “fold-reversal (vincristine)” value (MCF-7/adr (ABCB1); +2.5 µM FG020326)?
**A.** (4.6) fold

**Q.** What about the “fold-reversal (cisplatin)” value (MCF-7/adr (ABCB1); +5 µM FG020326) of the same molecule?
**A.** (0.9) fold

**Q.** And the “fold-reversal (doxorubicin)” value (MCF-7/adr (ABCB1); +5 µM FG020326)?
**A.** (14.3) fold

**Q.** What about the “fold-reversal (paclitaxel)” value (MCF-7/adr (ABCB1); +5 µM FG020326) of the same molecule?
**A.** (22.0) fold

**Q.** What about the “fold-reversal (vincristine)” value (MCF-7/adr (ABCB1); +5 µM FG020326) of the same molecule?
**A.** (10.7) fold
